The values that follow come from US12655160B2, “KRAS G12D inhibitors” (Mirati Therapeutics, Inc., priority 2020, dated 2026).

Where a name gives a salt, the structure may show the parent alone.

KRas G12D, sequence (P01116 1-169 isoform P01116-2 G12D): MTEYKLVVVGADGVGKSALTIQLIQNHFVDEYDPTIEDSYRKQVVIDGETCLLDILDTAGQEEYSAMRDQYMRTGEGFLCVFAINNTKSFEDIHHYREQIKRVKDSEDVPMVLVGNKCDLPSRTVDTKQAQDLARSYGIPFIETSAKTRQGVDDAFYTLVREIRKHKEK

This assay concerns the target KRas G12D (Homo sapiens, UniProt P01116, G12D). Kind of assay: KRas G12D Binding Assay (TR-FRET displacement of labeled tracer). The arrangement: corresponding to amino acids 1:169, produced at Array BioPharma Inc; biotin (biotinylated). The note with it: TR-FRET displacement of Cy5 labelled tracer, Biotinylated GDP-loaded KRAS G12D (amino acids 1:169), 60 minute incubation at 22° C. The procedure:
This Example illustrates that exemplary compounds of the present invention bind to KRas G12D and are capable of displacing a labeled tracer ligand occupying the KRas G12D binding site. The ability of a compound to bind to KRAS G12D was measured using a TR-FRET displacement assay. Biotinylated GDP-loaded recombinant human KRAS G12D (corresponding to amino acids 1:169, produced at Array BioPharma Inc.) was incubated with a custom-made Cy5 labelled tracer, europium labelled streptavidin and compound (2% DMSO final) in buffer (50 mM HEPES [pH 7.5], 5 mM MgCl2, 0.005% Tween-20 & 1 mM DTT). After a 60 minute incubation at 22° C., the reaction was measured using a PerkinElmer EnVision multimode plate reader via TR-FRET dual wavelength detection, and the percent of control (POC) calculated using a ratiometric emission factor. […] The POC values were fit to a 4-parameter logistic curve and the IC50 value was determined as the concentration where the curve crosses 50 POC.
In general terms: Time-resolved FRET reads energy transfer from a long-lived donor to a nearby acceptor.
As to `CCc1cccc2cc(O)cc(-c3ncc4c(NCC5(N(C)C)CCC5)nc(OC[C@@]56CCCN5C[C@H](F)C6)nc4c3F)c12` [Example 33, 4-(4-(((1-(dimethylamino)cyclobutyl)methyl)amino)-8-fluoro-2-(((2R,7aS)-2-fluorotetrahydro-1H-pyrrolizin-7a(5H)-yl)methoxy)pyrido[4,3-d]pyrimidin-7-yl)-5-ethylnaphthalen-2-ol dihydrochloride], the half-inhibitory concentration (IC50) came to 0.9 nM. This counts as sub-nanomolar.

For the compound `CCc1cccc2cc(O)cc(-c3ncc4c(N(C)CC5(N(C)C)CCC5)nc(OC[C@@]56CCCN5C[C@H](F)C6)nc4c3F)c12` [Example 37, 4-(4-(((1-(dimethylamino)cyclobutyl)methyl)(methyl)amino)-8-fluoro-2-(((2R,7aS)-2-fluorotetrahydro-1H-pyrrolizin-7a(5H)-yl)methoxy)pyrido[4,3-d]pyrimidin-7-yl)-5-ethylnaphthalen-2-ol dihydrochloride], the IC50 worked out at 26.1 nM. Take `CN1CCC[C@H]1COc1nc(NCC2(N(C)C)CCC2)c2cnc(-c3cc(O)cc4ccccc34)c(F)c2n1` [Example 11, (S)-4-(4-(((1-(dimethylamino)cyclobutyl)methyl)amino)-8-fluoro-2-((1-methylpyrrolidin-2-yl)methoxy)pyrido[4,3-d]pyrimidin-7-yl)naphthalen-2-ol bis(2,2,2-trifluoroacetate)]: the IC50 worked out at 98 nM. On to `CN(C)C1(CNc2nc(OC[C@@]34CCCN3C[C@H](F)C4)nc3c(F)c(-c4cc(O)cc5ccccc45)ncc23)CCOCC1` [Example 41, 4-(4-(((4-(dimethylamino)tetrahydro-2H-pyran-4-yl)methyl)amino)-8-fluoro-2-(((2R,7aS)-2-fluorotetrahydro-1H-pyrrolizin-7a(5H)-yl)methoxy)pyrido[4,3-d]pyrimidin-7-yl)naphthalen-2-ol bis(2,2,2-trifluoroacetate)], for which the IC50 turned out to be 684 nM.

For `Oc1cc(-c2ncc3c(NCC4(N5CCOCC5)CCC4)nc(OC[C@@]45CCCN4C[C@H](F)C5)nc3c2F)c2ccccc2c1` [Example 4, 4-(8-fluoro-2-(((2R,7aS)-2-fluorotetrahydro-1H-pyrrolizin-7a(5H)-yl)methoxy)-4-(((1-morpholinocyclobutyl)methyl)amino)pyrido[4,3-d]pyrimidin-7-yl)naphthalen-2-ol], the half-inhibitory concentration (IC50) was found to be 958 nM. The figure for `CCc1c(F)ccc2cccc(-c3ncc4c(NCC5(N(C)C)CCC5)nc(OCC56CCCN5CCC6)nc4c3F)c12` [Example 35, N-((1-(dimethylamino)cyclobutyl)methyl)-7-(8-ethyl-7-fluoronaphthalen-1-yl)-8-fluoro-2-((tetrahydro-1H-pyrrolizin-7a(5H)-yl)methoxy)pyrido[4,3-d]pyrimidin-4-amine bis(2,2,2-trifluoroacetate)] is 30.4 nM; for `CN(C)C1(CNc2nc(OC[C@@]34CCCN3C[C@H](F)C4)nc3c(F)c(-c4cccc5cccc(F)c45)ncc23)CCC1` [Example 22, N-((1-(dimethylamino)cyclobutyl)methyl)-8-fluoro-7-(8-fluoronaphthalen-1-yl)-2-(((2R,7aS)-2-fluorotetrahydro-1H-pyrrolizin-7a(5H)-yl)methoxy)pyrido[4,3-d]pyrimidin-4-amine] it is 1320 nM. `CN(C)C1(CNc2nc(OCC34CCCN3C[C@H](F)C4)nc3c(F)c(-c4cccc5cccc(C6CC6)c45)ncc23)CCC1` (mixture of isomers) [Example 26, 7-(8-cyclopropylnaphthalen-1-yl)-N-((1-(dimethylamino)cyclobutyl)methyl)-8-fluoro-2-(((2S,7aR)-2-fluorotetrahydro-1H-pyrrolizin-7a(5H)-yl)methoxy)pyrido[4,3-d]pyrimidin-4-amine]: the IC50 worked out at 344 nM.

On to `CN(CC1(N(C)C)CCC1)c1nc(OCC23CCCN2CCC3)nc2c(F)c(-c3cccc4cccc(F)c34)ncc12` [Example 58, N-((1-(dimethylamino)cyclobutyl)methyl)-8-fluoro-7-(8-fluoronaphthalen-1-yl)-2-((hexahydro-1H-pyrrolizin-7a-yl)methoxy)-N-methylpyrido[4,3-d]pyrimidin-4-amine], for which the half-maximal inhibitory concentration (IC50) amounted to 9090 nM. This IC50 lies about 26-fold higher than the previous one. With `CN(C)C1(CNc2nc(OC[C@@]34CCCN3C[C@H](F)C4)nc3c(F)c(-c4cccc5cccc(Cl)c45)ncc23)CCC1` [Example 23, 7-(8-chloronaphthalen-1-yl)-N-((1-(dimethylamino)cyclobutyl)methyl)-8-fluoro-2-(((2R,7aS)-2-fluorotetrahydro-1H-pyrrolizin-7a(5H)-yl)methoxy)pyrido[4,3-d]pyrimidin-4-amine] the figure was 583 nM; with `CCc1c(F)ccc2cc(O)cc(-c3ncc4c(NCC5(N(C)C)CCC5)nc(OC[C@@]56CCCN5C[C@H](F)C6)nc4c3F)c12` [Example 57, 4-(4-(((1-(dimethylamino)cyclobutyl)methyl)amino)-8-fluoro-2-(((2R,7aS)-2-fluorohexahydro-1H-pyrrolizin-7a-yl)methoxy)pyrido[4,3-d]pyrimidin-7-yl)-5-ethyl-6-fluoronaphthalen-2-ol], 1.1 nM; with `NC1CC(Nc2nc(OCC34CCCN3CCC4)nc3c(F)c(-c4cccc5cccc(F)c45)ncc23)C12CCC2` (stereo not shown) [Example 62, N^1-(8-fluoro-7-(8-fluoronaphthalen-1-yl)-2-((hexahydro-1H-pyrrolizin-7a-yl)methoxy)pyrido[4,3-d]pyrimidin-4-yl)spiro[3.3]heptane-1,3-diamine], 203 nM. The figure for `CC(C)c1cccc2cccc(-c3ncc4c(NCC5(N(C)C)CCC5)nc(OCC56CCCN5C[C@H](F)C6)nc4c3F)c12` (mixture of isomers) [Example 25, N-((1-(dimethylamino)cyclobutyl)methyl)-8-fluoro-2-(((2S,7aR)-2-fluorotetrahydro-1H-pyrrolizin-7a(5H)-yl)methoxy)-7-(8-isopropylnaphthalen-1-yl)pyrido[4,3-d]pyrimidin-4-amine] is 1640 nM. For the compound `CN(C)C1(CNc2nc(OC[C@@]34CCCN3C[C@H](F)C4)nc3c(F)c(-c4cccc5cccc(C(F)(F)F)c45)ncc23)CCC1` [Example 3, N-((1-(dimethylamino)cyclobutyl)methyl)-8-fluoro-2-(((2R,7aS)-2-fluorotetrahydro-1H-pyrrolizin-7a(5H)-yl)methoxy)-7-(8-(trifluoromethyl)naphthalen-1-yl)pyrido[4,3-d]pyrimidin-4-amine], the IC50 came to 239 nM. With `CC(C)(O)CNc1nc(OC[C@@]23CCCN2C[C@H](F)C3)nc2c(F)c(-c3cccc4cccc(Cl)c34)ncc12` [Example 15, 1-((7-(8-chloronaphthalen-1-yl)-8-fluoro-2-(((2R,7aS)-2-fluorotetrahydro-1H-pyrrolizin-7a(5H)-yl)methoxy)pyrido[4,3-d]pyrimidin-4-yl)amino)-2-methylpropan-2-ol] the figure was 3150 nM; with `Cc1cccc2cccc(-c3ncc4c(NCC5(N(C)C)CCC5)nc(OC[C@@]56CCCN5C[C@H](F)C6)nc4c3F)c12` [Example 2, N-((1-(dimethylamino)cyclobutyl)methyl)-8-fluoro-2-(((2R,7aS)-2-fluorotetrahydro-1H-pyrrolizin-7a(5H)-yl)methoxy)-7-(8-methylnaphthalen-1-yl)pyrido[4,3-d]pyrimidin-4-amine bis(2,2,2-trifluoroacetate)], 269 nM.

For orientation: IC50 means the concentration that gives 50% inhibition.
